Earlier results in paper PMC8625207, “Antikinetoplastid Activity of Sesquiterpenes Isolated from the Zoanthid Palythoa aff. clavata” (Pharmaceuticals, 2021).

Test system: T. brucei rhodes
Design: method as in PMID 19513006
Settings: cited from earlier work

## C=C1C(=O)OC2C1CCC1(C)C(O)CCC(=C)C21 (stereo not shown) [compound 19]
  selectivity against T. brucei rhodes: high selectivity
